From patent US20110152342A1, “STABILIZED PHARMACEUTICAL COMPOSITION” (priority 2008, published 2011)

Experiment: Critical relative humidity of sugar alcohols determined at 37° C.
Type: physicochemical
Conditions: lowest humidity at which an increase in moisture content is observed after 72 hours
Protocol: As such sugar alcohol, preferably used herein include those having a critical relative humidity as determined at 37° C. of not less than 70% and further preferably used herein are those having a critical relative humidity as determined at 37° C. of not less than 85%. […] For instance, the critical relative humidity can be determined by introducing samples (obtained after drying at 80° C. overnight) of about 1 g each into weighing bottles, placing them in thermo-hygrostats which have been set at the following relative humidity (RH) values: 37° C./40% RH, 37° C./45% RH, 37° C./55% RH, 37° C./65% RH, 37° C./70% RH, 37° C./75% RH, 37° C./80% RH, 37° C./85% RH, 37° C./90% RH, 37° C./95% RH and 37° C./98% RH, respectively (all of the chambers are of the same type: ETAC FX201P), allowing them to stand under such conditions over 72 hours, calculating the increase in the moisture content of each sample at this stage, and determining the lowest humidity at which an increase in the moisture content is observed, the resulting lowest humidity being defined to be the critical relative humidity of the sugar alcohol thus tested. […] The examples of such sugar alcohols having a critical relative humidity, as determined at 37° C., of not less than 70% are erythritol, xylitol, mannitol, maltitol, lactitol, and the like. […]

With `OC[C@@H](O)[C@@H](O)[C@H](O)[C@H](O)CO` [mannitol] as the compound, how does the critical relative humidity read?
Its critical relative humidity is “not less than 98%”.

With `OC[C@@H](O)[C@@H](O)[C@H](O)[C@@H](O)CO` [sorbitol] as the compound, how does the critical relative humidity read?
Its critical relative humidity is 65%.
